Source: publication PMC10334471, “Tumor-targeted dual-action NSAID-platinum(IV) anticancer prodrugs” (Inorganic Chemistry Frontiers, 2023)
Each block holds one compound with its values, some of them ahead of it.

What was measured:
CT26 allografts [1] = type: in vivo; conditions: Asa 50 mg kg^−1 p.o.
Procedure: (§1) All experiments were executed according to the regulation of the Ethics Committee for the Care and Use of Laboratory Animals at the Medical University Vienna. 8–12 weeks old BALB/c were kept in a pathogen-free environment with a 12 h light dark-cycle with ad libitum access to food and water. Every procedure was performed in a laminar airflow under sterile condition. Tumor growth and possible side effects of drug treatment were evaluated by daily recording the tumor size by caliper measurement according to the formula length × width^2/2 and parameters of the animal's overall health conditions.
(§2) CT26 cells (5 × 10^5 cells in 50 μl serum-free medium) were injected s.c. into the right flank of female BALB/c mice. […] Asa was treated orally using 50 mg kg^−1 in 5% DMSO/0.9% NaCl. Every day, the animals were monitored for the overall health conditions. Additionally, tumor size was measured. In case of a decreased body weight of ∼20% or ulcerated tumors, animals were sacrificed by cervical dislocation and tumors as well as organs were collected.

CT26 allografts [2] = assay: Oral anticancer activity in CT26 allografts; type: in vivo, Balb/c mice
Procedure: It is well known that COX-2 is involved in the paracrine signaling between immune cells, resulting in a pro-tumorigenic tumor microenvironment.[10,33] Consequently, we got interested in the impact of the Asa ligand on the anticancer activity of the drugs in vivo. […] As Asa is clinically applied p.o., we tested the efficacy of OxAsaOAc and asplatin in an oral application setting. […] For the therapy experiment, the animals were treated with OxAsaOAc and asplatin for five subsequent days over two weeks.
as §1

[3] = Hydrolysis of Asa spiked in fresh murine blood (HPLC-MS); conditions: after 30 min blood clotting and serum extraction
Procedure: To this end, we spiked Asa in fresh murine blood, isolated the serum, applied the extraction protocol and measured the samples via HPLC-MS.
The extraction method for acetylsalicylic acid and salicylic acid from Grobecker and coworkers was used.[26] For method validation and quantification, 99 μl mouse serum were spiked with Asa or salicylic acid dissolved in 1 μl DMSO in order to obtain a range of concentrations from 1 to 100 μM. Immediately afterwards the samples were acidified with 100 μl HCl/H3PO4 (0.1 M each) and extracted via addition of 600 μl of acetonitrile. After vigorous shaking for 1 min the suspension was stored at 4 °C for ten minutes before being centrifuged at 9500g for 10 min. The supernatant was taken up with a pipette and transferred into an Eppendorf tube with approx. 100 mg of solid NaCl. After vigorous shaking, the samples were again stored at 4 °C for 5 min and centrifuged at 9500 g for 5 min. The organic layer was taken up and measured on an Agilent 1260 Infinity II system using a Waters Acquity UPLC BEH C18 1.7 μm 3.0 × 50 mm column coupled to an Agilent InfinityLab LC/MSD mass spectrometer in negative mode. Milli-Q water, containing 0.1% formic acid, and acetonitrile containing 0.1% formic acid were used as eluents. A gradient of 5–95% acetonitrile in 6 min was used.

[4] = Stability in aqueous buffer pH 7.4 (HPLC); type: physicochemical; conditions: for Stability in aqueous solution: 1 mM, 250 mM phosphate buffer pH 7.4, 20 °C, 25 h, HPLC
Procedure: (§3) Phosphate buffer (250 mM, pH 7.4) containing 1 mM platinum compound was incubated at 20 °C, with and without the addition of 10 eq. L-ascorbic acid. […] A gradient of 5–95% over 5 minutes was used. To evaluate the current state of the reaction, the peak area of the parental complex was used.

[5] = Reduction kinetics with 10 eq. ascorbic acid (UHPLC); type: physicochemical
Procedure: as §3

[6] = Released salicylic acid in serum of mice after single i.v. administration (UHPLC-MS)
Procedure: After 10 min, 1 h and 24 h blood was collected via the facial vein. Serum was isolated by centrifugation at 900 g for 10 min for two times and stored at −80 °C. Platinum content was detected by ICP-MS measurements, using an Agilent 7800 (Agilent Technologies, Tokyo, Japan) equipped with an Agilent SPS 4 autosampler (Agilent Technologies, Tokyo, Japan) and a MicroMist nebulizer. The Agilent MassHunter software package (Workstation Software, Version C.01.04, 2018) was used for data evaluation. The ICP-MS operation parameters are given in Table S1. ^† Salicylic acid was extracted and detected as described above.

Caco-2 = assay: MTT assay, 72 h, Caco-2; type: cell-based; conditions: Caco-2, MTT, 72 h treatment, mean ± SD
Procedure: (§4) All cell cultures were grown at 37 °C in a humidified atmosphere containing 5% CO2. HCT116, RKO and HT-29 cells were cultured in McCoy's 5A Modified Media (Sigma-Aldrich, St. Louis, MO, USA) supplemented with 10% heat-inactivated fetal calf serum (FCS, PAA, Linz, Austria) and 2 mM glutamine (Sigma-Aldrich, St. Louis, MO, USA). The murine (Balb/c) colon cancer cell model CT26 (purchased from American Type Culture Collection, Manassas, VA, USA) were cultured in DMEM/F12 supplemented with 10% fetal calf serum (FCS). SW480 and Caco-2 cells were cultured in MEME media supplemented with 10% and 20% FCS, respectively. All cell culture media and reagents were purchased from Sigma-Aldrich Austria. […] The cells were regularly checked for Mycoplasma contamination.
(§5) Depending on their proliferation rate, cells were seeded at a density of 3500–5000 cells per well in 96-well microtiter plates and allowed to adhere overnight. […] Cell viability was determined using the 3-(4,5-dimethylthiazol-2-yl)-2,5-diphenyltetrazolium bromide (MTT) assay (EZ4U, Biomedia, Vienna, Austria) according to the manufacturer's recommendation. Depending on the metabolic capacity, the cell lines were incubated between one and three hours at 37 °C and subsequently absorbance was measured at 450 nm (620 nm as a reference) with a Tecan Reader infinite® M200Pro (Tecan Group Ltd, Switzerland). Data were analyzed using Graph Pad prism (version 8.0.1) by using the point-to-point function. […] Following, dose–response curves were calculated using the point-to-point function.

RKO = assay: MTT assay, 72 h, RKO; type: cell-based; conditions: 72 h treatment, mean ± SD
Procedure: as §4, §5

SW480 = assay: MTT assay, 72 h, SW480; type: cell-based; conditions: 72 h treatment, mean ± SD
Procedure: as §4, §5

HT-29 = assay: MTT assay, 72 h, HT-29; type: cell-based; conditions: HT-29, MTT, 72 h treatment, mean ± SD
Procedure: as §4, §5

HCT116 = assay: MTT assay, 72 h, HCT116; type: cell-based; conditions: mean ± SD
Procedure: as §4, §5

HCT116/OxR = assay: MTT assay, 72 h, HCT116/OxR (oxaliplatin-resistant); type: cell-based; conditions: mean ± SD
Procedure: as §4, §5

CT26 (murine) = assay: MTT assay, 72 h, CT26; type: cell-based; conditions: 72 h treatment, mean ± SD
Procedure: as §4, §5

[7] = Preliminary oral tolerability experiments in tumor-free mice; type: in vivo; conditions: p.o., equivalent to 7.5 mg kg^−1 Asa and 12.5 mg kg^−1 cisplatin
Excerpt: It is well known that COX-2 is involved in the paracrine signaling between immune cells, resulting in a pro-tumorigenic tumor microenvironment.[10,33] Consequently, we got interested in the impact of the Asa ligand on the anticancer activity of the drugs in vivo. Therefore, we chose immune-competent murine colon cancer CT26 allografts as test system, which were characterized by high COX-2 expression (Fig. S4 ^†). […] Thus, the experiment was stopped on day 19 due to a distinct drop in body weight in these animals. As Asa is clinically applied p.o., we tested the efficacy of OxAsaOAc and asplatin in an oral application setting. […] For the therapy experiment, the animals were treated with OxAsaOAc and asplatin for five subsequent days over two weeks. […] Consequently, we concluded that the drug doses reaching the tumor in these therapy settings were insufficient, which prompted us to aim for carrier systems with enhanced tumor-targeting properties.

[8] = Serum levels and organ distribution of platinum in CT26-bearing mice (ICP-MS); type: in vivo, Balb/c mice; conditions: 24 h after single i.v. dose equimolar to 9 mg kg^−1 oxaliplatin
Procedure: CT26 cells (5 × 10^5 cells in 50 μl serum-free medium) were injected subcutaneously (s.c.) into the right flank of female BALB/c mice. […] After 24 h, the animals were anesthetized and blood was drawn. The animals were sacrificed by cervical dislocation and tumors as well as organs were collected for measurement with ICP-MS. To isolate serum and blood pellets, blood was centrifuged for 10 min at 3000 rpm. The supernatant characterized as serum was transferred to a new tube and centrifuged again to get rid of residual red blood cells.

CT26 allografts [9] = assay: Anticancer activity i.v. in CT26-bearing mice; type: in vivo, Balb/c mice
Procedure: as §1, §2

albumin = biological target: T1, albumin (Bos taurus, UniProt P02769); assay: Albumin binding in fetal calf serum by SEC-ICP-MS; type: in vitro ADME; conditions: 100 μM in FCS (150 mM phosphate buffer, pH 7.4), 37 °C
T1 construct: Fetal calf serum was purchased from Sigma-Aldrich and buffered with 150 mM phosphate pH 7.4; tissue Sigma-Aldrich; host or cells: fetal calf serum
T1 sequence (P02769 25-607): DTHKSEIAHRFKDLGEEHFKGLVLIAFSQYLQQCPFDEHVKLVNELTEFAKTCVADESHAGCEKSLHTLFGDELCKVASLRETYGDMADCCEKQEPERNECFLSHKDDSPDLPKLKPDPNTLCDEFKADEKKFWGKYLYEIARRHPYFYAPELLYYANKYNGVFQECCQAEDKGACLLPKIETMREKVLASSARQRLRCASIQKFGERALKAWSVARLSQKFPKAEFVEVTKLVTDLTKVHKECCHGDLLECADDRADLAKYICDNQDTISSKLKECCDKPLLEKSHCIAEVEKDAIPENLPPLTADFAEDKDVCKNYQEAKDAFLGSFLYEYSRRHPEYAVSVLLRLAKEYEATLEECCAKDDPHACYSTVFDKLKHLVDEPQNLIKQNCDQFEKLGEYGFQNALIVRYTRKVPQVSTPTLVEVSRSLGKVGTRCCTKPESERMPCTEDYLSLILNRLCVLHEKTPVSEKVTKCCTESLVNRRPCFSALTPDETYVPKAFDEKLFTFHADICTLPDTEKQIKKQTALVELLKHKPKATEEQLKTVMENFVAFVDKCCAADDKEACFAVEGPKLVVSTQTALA
Procedure: Fetal calf serum was purchased from Sigma-Aldrich and buffered with 150 mM phosphate pH 7.4 in order to guarantee a stable pH. The platinum(IV) complexes (5 mM) were dissolved in 150 mM phosphate buffer (pH 7.4) and diluted 1 : 50 in the buffered serum to obtain a final concentration of 100 μM. The samples were then incubated in the autosampler at 37 °C and analyzed every 1 h for 6 h. Between each sample a pure water blank was measured. For SEC-ICP-MS measurements an Agilent 1260 Infinity system coupled to an Agilent 7800 ICP-MS equipped with a dynamic reaction cell was used. Oxygen (purity 5.5, Messer Austria GmbH, Gumpoldskirchen, Austria) was used as reaction gas.

[10] = Homo sapiens, HCT-116, 72 h treatment
[11] = compared to all four non-albumin-binding drugs

SMILES: CC(=O)Oc1ccccc1C(=O)O [Asa, acetylsalicylic acid]
- Response of tumor model (tumor growth) (CT26 allografts [1]): responsiveness
- Impact on tumor growth (CT26 allografts [2]; Asa 15 mg kg^−1 p.o.): no impact on tumor growth
- Hydrolysis of Asa to salicylic acid [3]: more than half of Asa was hydrolyzed to salicylic acid

SMILES: CC(=O)Oc1ccccc1C(=O)[O][Pt]([OH])([Cl])[Cl].N.N [Asplatin]
- Stability in aqueous solution [4]: high stability
- Remaining intact platinum(IV) complex at 1 h ([5]; 1 mM, 250 mM phosphate buffer pH 7.4, 20 °C, 10 eq. ascorbic acid, 1 h): no remaining intact platinum(IV) complex could be observed
- Free salicylic acid in serum, share of administered dose ([6]; 10 min after single i.v. dose equimolar to 9 mg kg^−1 oxaliplatin, tumor-free Balb/c mice): ~30 mol%
- Salicylic acid level in serum ([6]; 24 h after single i.v. dose equimolar to 9 mg kg^−1 oxaliplatin, below LOD): < 3 µM
- IC50 (Caco-2): 6.4 ± 1.1 µM
- IC50 (RKO): 0.9 µM
- IC50 (SW480): 0.6 ± 0.1 µM
- IC50 (HT-29): 9.2 ± 0.6 µM
- IC50 (HCT116; 72 h treatment): 2.2 ± 0.1 µM
- IC50 (HCT116/OxR; 72 h treatment): 8.7 ± 1.8 µM
- IC50 (CT26 (murine)): 2.5 ± 0.2 µM
- Oral dose that could be used (tolerability) [7]: 20.7 mg/kg
- Impact on tumor growth (CT26 allografts [2]; asplatin 20.7 mg kg^−1 p.o., five subsequent days over two weeks): none of the drugs had any impact on tumor growth
- Platinum levels in liver and kidney [8]: exceptionally high
- Toxicity i.v. (CT26 allografts [9]; reason for lower i.v. dose equimolar to 3 mg kg^−1 cisplatin): high toxicity

- IC50 (Caco-2; Homo sapiens): 79.2 ± 3.6 µM
- IC50 (SW480; Homo sapiens): 83.1 ± 1.5 µM
- IC50 (HT-29; Homo sapiens): 68 ± 6.4 µM
- IC50 (HCT116; [10]): 76.2 ± 4.3 µM
- IC50 (HCT116/OxR; [10]): 79.2 ± 2.7 µM
- IC50 (CT26 (murine); Mus musculus): 60.9 ± 2.5 µM
SMILES: Cc1ccc(-c2cc(C(F)(F)F)nn2-c2ccc(S(N)(=O)=O)cc2)cc1 [Celecoxib]
- IC50 (RKO; Homo sapiens): 79.3 ± 4.9 µM

SMILES: N.N.[Cl][Pt][Cl] [Cisplatin, cisplatin]
- IC50 (RKO): 1.6 ± 0.3 µM
- IC50 (SW480): 7.8 ± 1.3 µM
- IC50 (HT-29): 10.1 ± 0.3 µM
- IC50 (HCT116; 72 h treatment): 3.1 ± 0.5 µM
- IC50 (HCT116/OxR; 72 h treatment): 10.4 ± 1.8 µM
- IC50 (CT26 (murine)): 1.2 ± 0.2 µM

SMILES: CC(=O)[O][Pt-2]12([O]C(C)=O)([NH2+][C@@H]3CCCC[C@H]3[NH2+]1)[O]C(=O)C(=O)[O]2 [Ox(OAc)2]
- Stability in aqueous solution [4]: high stability
- Intact complex after 6 h ([5]; 1 mM, 250 mM phosphate buffer pH 7.4, 20 °C, 10 eq. ascorbic acid, 6 h): 97%
- Intact complex after 24 h ([5]; 1 mM, 250 mM phosphate buffer pH 7.4, 20 °C, 10 eq. ascorbic acid, 24 h): 81%
- IC50 (RKO): 9 ± 1 µM
- IC50 (SW480): 13.2 ± 2.5 µM
- IC50 (HT-29): 136 ± 34.6 µM
- IC50 (HCT116; 72 h treatment): 17.4 ± 2.4 µM
- IC50 (HCT116/OxR; 72 h treatment): > 100 µM
- IC50 (CT26 (murine)): 22.5 ± 2.8 µM

SMILES: CC(=O)Oc1ccccc1C(=O)[O][Pt-2]12([O]C(=O)NCCOCCOCCOCCOCCN3C(=O)C=CC3=O)([NH2+][C@@H]3CCCC[C@H]3[NH2+]1)[O]C(=O)C(=O)[O]2 [OxAsaMal, (OC-6-34)-(2-acetoxybenzoato)[(1R,2R)-1,2-cyclohexanediamino]oxalato[(14-(2,5-dioxo-2,5-dihydro-1H-pyrrol-1-yl)-3,6,9,12-tetraoxatetradecyl)carbamato]platinum(IV)]
- Stability of the platinum core ([4]; phosphate-buffered saline (PBS) pH 7.4, 24 h): high stability of the platinum core
- Reduction behavior (monitored by released Asa and oxaliplatin) ([5]; in the presence of ascorbic acid, comparable to OxAsaOAc): slow reduction behavior
- Fraction bound to the albumin fraction (albumin; 0 h time point): 77%
- Fraction bound to the albumin fraction (albumin; after 1 h): 95%
- Platinum plasma levels [8, 11]: significantly higher plasma levels
- Tumor accumulation of platinum [8, 11]: higher tumor accumulation
- Prolonged overall survival (CT26 allografts [9]; i.v., 4-times over 2 weeks, dose equimolar to 9 mg kg^−1 oxaliplatin, CT26): ~20 days
- Tolerability (body weight) (CT26 allografts [9]; i.v., 4-times over 2 weeks, doses equimolar to 9 mg kg^−1 oxaliplatin): well tolerated
- Anticancer activity (tumor growth, overall survival) (CT26 allografts [9]; i.v., 4-times over 2 weeks, doses equimolar to 9 mg kg^−1 oxaliplatin, CT26): long-lasting disease control over several days
